Measurements from BindingDB's records for doi:10.1021/jm960626t (Dupont Pharmaceuticals, 1997).
Counter-ions that a name gives are not always drawn.

target: Integrin alpha-IIb/beta-3 (Homo sapiens, UniProt P08514+P05106); test: Inhibition of human platelet aggregation induced by ADP
Sequence (P05106 27-788 limits assumed): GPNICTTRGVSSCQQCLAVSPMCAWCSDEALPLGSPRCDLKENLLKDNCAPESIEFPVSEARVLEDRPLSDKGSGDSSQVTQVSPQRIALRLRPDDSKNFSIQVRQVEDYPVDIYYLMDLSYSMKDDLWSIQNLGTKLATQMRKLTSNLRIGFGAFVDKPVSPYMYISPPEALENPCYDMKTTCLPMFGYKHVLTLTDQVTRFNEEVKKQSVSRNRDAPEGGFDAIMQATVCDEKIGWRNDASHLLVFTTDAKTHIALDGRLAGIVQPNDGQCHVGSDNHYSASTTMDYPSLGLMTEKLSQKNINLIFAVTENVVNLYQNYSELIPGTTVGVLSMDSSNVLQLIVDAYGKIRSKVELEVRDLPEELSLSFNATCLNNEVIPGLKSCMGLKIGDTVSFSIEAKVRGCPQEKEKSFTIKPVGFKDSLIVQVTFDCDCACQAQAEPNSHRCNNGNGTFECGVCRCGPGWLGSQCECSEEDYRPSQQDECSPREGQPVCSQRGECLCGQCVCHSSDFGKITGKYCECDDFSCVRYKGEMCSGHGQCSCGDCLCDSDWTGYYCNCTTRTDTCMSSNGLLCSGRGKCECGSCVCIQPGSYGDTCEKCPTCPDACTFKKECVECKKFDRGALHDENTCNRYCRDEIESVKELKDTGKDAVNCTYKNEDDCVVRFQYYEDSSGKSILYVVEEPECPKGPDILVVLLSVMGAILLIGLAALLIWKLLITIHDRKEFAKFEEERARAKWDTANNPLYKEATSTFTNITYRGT
Sequence (P08514 32-887 limits assumed): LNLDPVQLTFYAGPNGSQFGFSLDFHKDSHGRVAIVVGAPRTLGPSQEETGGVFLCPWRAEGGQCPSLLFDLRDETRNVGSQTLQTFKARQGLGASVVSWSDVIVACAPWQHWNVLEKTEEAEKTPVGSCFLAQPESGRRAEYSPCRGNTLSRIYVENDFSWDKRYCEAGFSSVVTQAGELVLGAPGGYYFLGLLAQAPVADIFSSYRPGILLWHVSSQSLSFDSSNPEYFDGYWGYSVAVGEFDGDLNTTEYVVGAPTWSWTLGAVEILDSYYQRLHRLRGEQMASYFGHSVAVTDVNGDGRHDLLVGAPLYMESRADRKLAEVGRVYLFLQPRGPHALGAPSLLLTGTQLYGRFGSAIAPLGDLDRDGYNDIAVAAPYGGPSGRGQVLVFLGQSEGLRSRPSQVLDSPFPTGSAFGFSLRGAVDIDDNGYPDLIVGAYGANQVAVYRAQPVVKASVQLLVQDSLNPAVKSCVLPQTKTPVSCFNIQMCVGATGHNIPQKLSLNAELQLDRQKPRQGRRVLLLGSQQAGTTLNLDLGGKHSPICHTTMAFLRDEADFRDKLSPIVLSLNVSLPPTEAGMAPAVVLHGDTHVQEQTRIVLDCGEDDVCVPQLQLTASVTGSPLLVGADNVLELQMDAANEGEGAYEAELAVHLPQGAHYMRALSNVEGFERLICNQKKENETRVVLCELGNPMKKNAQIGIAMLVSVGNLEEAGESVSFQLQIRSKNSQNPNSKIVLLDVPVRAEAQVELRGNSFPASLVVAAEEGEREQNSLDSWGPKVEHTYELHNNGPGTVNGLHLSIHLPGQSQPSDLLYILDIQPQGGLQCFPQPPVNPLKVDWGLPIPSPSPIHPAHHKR
Sequence (P08514 891-1039 limits assumed): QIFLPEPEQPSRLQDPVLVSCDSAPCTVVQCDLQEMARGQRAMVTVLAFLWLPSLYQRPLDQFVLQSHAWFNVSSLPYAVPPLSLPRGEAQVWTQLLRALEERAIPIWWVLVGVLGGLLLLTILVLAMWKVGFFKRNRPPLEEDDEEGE

Row | Compound | IC50
1 | N=C(N)c1ccc(C2=NO[C@H](CC(=O)NCCC(=O)O)C2)cc1 [3-{2-[(S)-3-(4-Carbamimidoyl-phenyl)-4,5-dihydro-isoxazol-5-yl]-acetylamino}-propionic acid; TFA] | 0.06 µM
2 | O=C(O)CCNC(=O)CC1CC(CC2CCNCC2)=NO1 (configuration not stated) [3-[2-(3-Piperidin-4-ylmethyl-4,5-dihydro-isoxazol-5-yl)-acetylamino]-propionic acid] | > 100 µM
3 | N=C(N)c1ccc(C2=NO[C@@H](CC(=O)NCCC(=O)O)C2)cc1 | 0.86 µM

The next lines start with the values.

Row | IC50 | Compound
4 | 18 µM | O=C(O)CCC1CC(c2ccc(OCC3CCNCC3)cc2)=NO1 (configuration not stated) [3-{3-[4-(Piperidin-4-ylmethoxy)-phenyl]-4,5-dihydro-isoxazol-5-yl}-propionic acid]
5 | 8.3 µM | O=C(O)CC1CC(c2ccc(OCCC3CCNCC3)cc2)=NO1 (configuration not stated) [{3-[4-(2-Piperidin-4-yl-ethoxy)-phenyl]-4,5-dihydro-isoxazol-5-yl}-acetic acid]
6 | 23 µM | O=C(NC(C(=O)O)C1CC(c2ccc(OCCC3CCNCC3)cc2)=NO1)OCc1ccccc1 (configuration not stated) [Benzyloxycarbonylamino-{3-[4-(2-piperidin-4-yl-ethoxy)-phenyl]-4,5-dihydro-isoxazol-5-yl}-acetic acid]
7 | 0.63 µM | O=C(O)CCNC(=O)CC1CC(CCC2CCNCC2)=NO1 (configuration not stated) [3-{2-[3-(2-Piperidin-4-yl-ethyl)-4,5-dihydro-isoxazol-5-yl]-acetylamino}-propionic acid]
